Source: DBAASP
≈ marks a conversion by molar mass, not a printed value. Each block holds one compound with its values, some of them ahead of it.

Experiments:
Test in all cases: ≥ marks a high value that may be exact or a test limit, other limits are often not marked, values filed in µg/mL are converted to µM
[1] = tested on: Candida albicans
[2] = tested on: Staphylococcus aureus
[3] = tested on: Escherichia coli
[4] = tested on: Bacillus subtilis
[5] = tested on: Pseudomonas aeruginosa ATCC 9027
[6] = tested on: Staphylococcus aureus ATCC 6538
[7] = tested on: Candida albicans ATCC 2002
[8] = tested on: Staphylococcus aureus ATCC 25923
[9] = tested on: Escherichia coli ATCC 25922
[10] = tested on: Pseudomonas aeruginosa CMCCB 10104
[11] = tested on: Pseudomonas aeruginosa ATCC 27853
[12] = tested on: Staphylococcus aureus ATCC 33591
[13] = tested on: Escherichia coli DH5alpha

MIC [1]: 1.1 µM (≈ 2.4 µg/mL)
MIC [2]: 2.66 µM (≈ 5.82 µg/mL)
MIC [3]: 1.47 µM (≈ 3.21 µg/mL)
MIC [4]: 0.845 µM (≈ 1.85 µg/mL)
SMILES: CC[C@H](C)[C@@H]1NC(=O)[C@H](CO)NC(=O)[C@H](CCCCN)NC(=O)[C@H]([C@@H](C)O)NC(=O)[C@H](Cc2c[nH]c3ccccc23)NC(=O)[C@@H](NC(=O)CNC(=O)[C@H](CCCCN)NC(=O)[C@H](CC(C)C)NC(=O)[C@H](C)NC(=O)[C@H](C)N)CSSC[C@@H](C(=O)N[C@@H](Cc2ccccc2)C(=O)NCC(=O)N[C@@H](CCCCN)C(=O)N[C@@H](CCCN=C(N)N)C(=O)O)NC(=O)[C@@H]2CCCN2C(=O)[C@H](CCCCN)NC(=O)[C@@H]2CCCN2C(=O)[C@@H]2CCCN2C1=O [AALKGCWTKSIPPKPCFGKR]

SMILES: CC(C)C[C@H](NC(=O)[C@H](CCCCN)NC(=O)[C@H](CCCCN)NC(=O)[C@H](C)NC(=O)[C@H](CC(C)C)NC(=O)[C@H](CCCCN)NC(=O)[C@H](CCCCN)NC(=O)[C@H](CC(C)C)NC(=O)[C@H](CCCCN)NC(=O)[C@H](CCCCN)NC(=O)[C@H](C)NC(=O)[C@@H](N)Cc1ccccc1)C(N)=O [FAKKLKKLAKKL]
MIC [5]: 141 µM (≈ 200 µg/mL)
MIC [6]: 70.6 µM (≈ 99.9 µg/mL)

MIC [7]: 1.3 µM (≈ 3.3 µg/mL)
MIC [8]: 2.61 µM (≈ 6.59 µg/mL)
MIC [9]: 2.61 µM (≈ 6.59 µg/mL)
MIC [10]: 5.21 µM (≈ 13.2 µg/mL)
SMILES: CC[C@H](C)[C@@H]1NC(=O)[C@H](C)NC(=O)[C@@H](NC(=O)[C@H](Cc2ccccc2)NC(=O)[C@H](C)NC(=O)[C@@H](NC(=O)[C@@H]2CCCN2C(=O)[C@H](CC(C)C)NC(=O)[C@@H](NC(=O)[C@H](CC(N)=O)NC(=O)[C@H](C)NC(=O)[C@H](C)NC(=O)[C@@H](NC(=O)[C@H](CCCN=C(N)N)NC(=O)[C@@H](NC(=O)[C@@H](NC(=O)[C@H](C)NC(=O)[C@@H]2CCCN2C(=O)[C@H](CC(C)C)NC(=O)[C@@H](N)Cc2ccccc2)C(C)C)[C@@H](C)CC)C(C)C)C(C)C)[C@@H](C)O)CSSC[C@@H](C(=O)O)NC(=O)[C@H](CCCCN)NC(=O)[C@H](CCCCN)NC(=O)[C@H](CO)NC1=O [FLPAVIRVAANVLPTAFCAISKKC]

MIC [7]: 2.94 µM (≈ 8.89 µg/mL)
MIC [8]: 5.89 µM (≈ 17.8 µg/mL)
MIC [9]: 2.94 µM (≈ 8.89 µg/mL)
MIC [10]: 5.89 µM (≈ 17.8 µg/mL)
SMILES: CC[C@H](C)[C@@H]1NC(=O)[C@H](CCCCN)NC(=O)[C@@H](NC(=O)[C@H](CCCCN)NC(=O)[C@H](CC(C)C)NC(=O)[C@H](CC(N)=O)NC(=O)[C@H](CC(=O)O)NC(=O)[C@H](CC(C)C)NC(=O)[C@H](CC(C)C)NC(=O)[C@@H](NC(=O)[C@@H](NC(=O)[C@H](C)NC(=O)[C@@H](NC(=O)[C@H](CC(N)=O)NC(=O)[C@H](CCCCN)NC(=O)[C@H](C)NC(=O)[C@@H](NC(=O)[C@H](CC(N)=O)NC(=O)[C@H](CCCCN)NC(=O)[C@H](C)NC(=O)[C@@H](NC(=O)[C@H](CC(N)=O)NC(=O)[C@H](CCSC)NC(=O)[C@H](Cc2ccccc2)NC(=O)CN)[C@@H](C)O)C(C)C)C(C)C)C(C)C)[C@@H](C)O)CSSC[C@@H](C(=O)O)NC(=O)CNC(=O)CNC(=O)[C@H]([C@@H](C)O)NC1=O [GFMNTAKNVAKNVAVTLLDNLKCKITGGC]

MIC [7]: 3.32 µM (≈ 6.69 µg/mL)
MIC [8]: 5.6 µM (≈ 11.3 µg/mL)
MIC [9]: 5.6 µM (≈ 11.3 µg/mL)
MIC [10]: 11.2 µM (≈ 22.6 µg/mL)
SMILES: CC[C@H](C)[C@H](NC(=O)CN)C(=O)N[C@@H](CC(C)C)C(=O)NCC(=O)N[C@@H](CC(N)=O)C(=O)N[C@H](C(=O)N[C@H](C(=O)NCC(=O)N[C@@H](CCSC)C(=O)NCC(=O)N[C@@H](CCCCN)C(=O)N[C@@H](CCCCN)C(=O)N[C@H](C(=O)N[C@H](C(=O)N[C@H]1CSSC[C@@H](C(=O)O)NC(=O)[C@H](CC(C)C)NC(=O)CNC(=O)[C@H](CO)NC(=O)[C@H](CC(C)C)NC(=O)CNC1=O)C(C)C)C(C)C)C(C)C)[C@@H](C)CC [GILGNIVGMGKKVVCGLSGLC]

MIC [7]: 14.3 µM (≈ 30.5 µg/mL)
MIC [8]: 7.2 µM (≈ 15.3 µg/mL)
MIC [9]: 14.3 µM (≈ 30.5 µg/mL)
MIC [10]: 7.2 µM (≈ 15.3 µg/mL)
SMILES: CC[C@H](C)[C@H](NC(=O)CNC(=O)[C@H](CCCCN)NC(=O)CNC(=O)[C@H](C)NC(=O)[C@H](Cc1ccccc1)NC(=O)[C@H](CCCCN)NC(=O)[C@H](CO)NC(=O)[C@H](Cc1ccccc1)NC(=O)[C@H](CC(C)C)NC(=O)CN)C(=O)N[C@H](C(=O)N[C@@H](CC(N)=O)C(=O)N[C@@H](Cc1ccccc1)C(=O)N[C@@H](CC(C)C)C(=O)N[C@H](C(=O)N[C@@H](CCC(=O)O)C(=O)NCC(=O)N[C@H](C(=O)N[C@@H](CCC(=O)O)C(=O)O)C(C)C)[C@@H](C)CC)C(C)C [GLFSKFAGKGIVNFLIEGVE]

MIC [1]: 0.544 µM (≈ 1.1 µg/mL)
MIC [2]: 4.64 µM (≈ 9.37 µg/mL)
MIC [3]: 2.32 µM (≈ 4.68 µg/mL)
MIC [4]: 9.28 µM (≈ 18.8 µg/mL)
SMILES: CC[C@H](C)[C@H](NC(=O)CNC(=O)[C@H](CO)NC(=O)[C@H](CC(C)C)NC(=O)[C@H](CC(C)C)NC(=O)CN)C(=O)N[C@@H](CC(C)C)C(=O)NCC(=O)N[C@@H](C)C(=O)NCC(=O)N[C@@H](CCCCN)C(=O)N[C@@H](Cc1cnc[nH]1)C(=O)N[C@H](C(=O)N[C@H](C(=O)N[C@@H](CS)C(=O)NCC(=O)N[C@@H](CC(C)C)C(=O)N[C@@H](CO)C(=O)NCC(=O)N[C@@H](CC(C)C)C(=O)N[C@@H](CCCN=C(N)N)C(=O)O)C(C)C)[C@@H](C)CC [GLLSGILGAGKHIVCGLSGLR]

SMILES: C[C@H](NC(=O)[C@H](CCCN=C(N)N)NC(=O)[C@H](CCCN=C(N)N)NC(=O)[C@@H]1CCCN1C(=O)CNC(=O)[C@H](CCCN=C(N)N)NC(=O)[C@H](CCCN=C(N)N)NC(=O)CN)C(=O)N[C@@H](CC(N)=O)C(=O)N[C@@H](CCC(N)=O)C(=O)N[C@@H](CC(N)=O)C(=O)NCC(=O)N[C@H](C(=O)N[C@@H](CCCN=C(N)N)C(=O)N[C@@H](CCCN=C(N)N)C(=O)N[C@@H](CCCN=C(N)N)C(=O)N[C@@H](CCCN=C(N)N)C(=O)N[C@@H](CCCN=C(N)N)C(=O)N[C@@H](CCCN=C(N)N)C(=O)N[C@H](C(N)=O)[C@@H](C)O)[C@@H](C)O [GRRGPRRANQNGTRRRRRRT]
MIC [8]: 100 µM (≈ 248 µg/mL)
MIC [9]: 25 µM (≈ 61.9 µg/mL)
MIC [11]: 25 µM (≈ 61.9 µg/mL)
MIC [12]: ≥ 100 µM

SMILES: CC(C)C[C@H](NC(=O)[C@H](CCCCN)NC(=O)[C@H](CCCCN)NC(=O)[C@H](C)NC(=O)[C@H](CC(C)C)NC(=O)[C@H](CCCCN)NC(=O)[C@H](CCCCN)NC(=O)[C@H](CC(C)C)NC(=O)[C@H](CCCCN)NC(=O)[C@H](CCCCN)NC(=O)[C@H](C)NC(=O)[C@H](CC(C)C)NC(=O)[C@H](CCCCN)NC(=O)[C@H](CCCCN)NC(=O)[C@H](C)NC(=O)[C@H](Cc1ccccc1)NC(=O)[C@H](CCCCN)NC(=O)[C@H](CCCCN)NC(=O)[C@H](Cc1ccccc1)NC(=O)[C@H](CC(C)C)NC(=O)[C@H](CCCCN)NC(=O)[C@@H](NC(=O)[C@@H](N)CCCCN)[C@@H](C)O)C(=O)O [KTKLFKKFAKKLAKKLKKLAKKL]
MIC [5]: 36.6 µM (≈ 100 µg/mL)
MIC [6]: 3.66 µM (≈ 10 µg/mL)

MIC [9]: 32 µM (≈ 62.7 µg/mL)
MIC [12]: ≥ 32 µM
SMILES: CC[C@H](C)[C@H](NC(=O)[C@@H](N)CCCN=C(N)N)C(=O)N[C@@H](Cc1c[nH]c2ccccc12)C(=O)N[C@@H](Cc1ccccc1)C(=O)N[C@@H](CCC(N)=O)C(=O)N[C@@H](CC(N)=O)C(=O)N[C@@H](CCCN=C(N)N)C(=O)N[C@@H](CCCN=C(N)N)C(=O)N[C@@H](CCSC)C(=O)N[C@@H](CCCN=C(N)N)C(=O)N[C@@H](Cc1c[nH]c2ccccc12)C(=O)N[C@@H](CCCN=C(N)N)C(=O)N[C@@H](CCCN=C(N)N)C(N)=O [RIWFQNRRMRWRR]

MIC [9]: 32 µM (≈ 71.3 µg/mL)
MIC [12]: 16 µM (≈ 35.6 µg/mL)
SMILES: CC[C@H](C)[C@H](NC(=O)[C@H](CCC(N)=O)NC(=O)[C@H](CC(C)C)NC(=O)[C@H](CCC(N)=O)NC(=O)[C@@H](NC(=O)[C@H](CCCCN)NC(=O)[C@H](Cc1ccccc1)NC(=O)[C@H](Cc1c[nH]c2ccccc12)NC(=O)[C@@H](N)CCCN=C(N)N)[C@@H](C)CC)C(=O)N[C@@H](CCCN=C(N)N)C(=O)N[C@@H](CCCN=C(N)N)C(=O)N[C@@H](Cc1c[nH]c2ccccc12)C(=O)N[C@@H](CCCCN)C(=O)N[C@@H](CC(N)=O)C(=O)N[C@@H](CCCCN)C(=O)N[C@@H](CCCCN)C(N)=O [RWFKIQLQIRRWKNKK]

MIC [1]: 200 µM (≈ 524 µg/mL)
MIC [2]: > 200 µM
MIC [3]: 40 µM (≈ 105 µg/mL)
SMILES: CC[C@H](C)[C@H](NC(=O)[C@H](CCCCN)NC(=O)[C@H](CS)NC(=O)[C@H](C)NC(=O)[C@@H](NC(=O)[C@H](Cc1ccccc1)NC(=O)CNC(=O)[C@H](CC(C)C)NC(=O)CNC(=O)[C@@H](NC(=O)[C@H](CCCCN)NC(=O)CNC(=O)[C@H](CC(C)C)NC(=O)[C@H](CC(N)=O)NC(=O)[C@H](CCCCN)NC(=O)[C@H](CC(C)C)NC(=O)[C@@H](NC(=O)CNC(=O)[C@H](CC(C)C)NC(=O)[C@H](CCSC)NC(=O)[C@@H](N)CO)C(C)C)C(C)C)C(C)C)C(=O)N[C@@H](CC(N)=O)C(=O)N[C@@H](CCCCN)C(=O)N[C@@H](CCC(N)=O)C(=O)N[C@@H](CS)C(=O)O [SMLGVLKNLGKVGLGFVACKINKQC]

MIC [8]: 10 µM (≈ 16.7 µg/mL)
MIC [11]: 30 µM (≈ 50.1 µg/mL)
MIC [13]: 10 µM (≈ 16.7 µg/mL)
MIC [4]: 20 µM (≈ 33.4 µg/mL)
SMILES: CC[C@H](C)[C@H](NC(=O)[C@H](Cc1ccccc1)NC(=O)[C@@H](NC(=O)[C@H](Cc1ccccc1)NC(=O)[C@H](CCCN=C(N)N)NC(=O)[C@H](CCCCN)NC(=O)[C@H](CCCN=C(N)N)NC(=O)[C@H](CCCCN)NC(=O)[C@H](Cc1c[nH]c2ccccc12)NC(=O)[C@H](CC(C)C)NC(=O)[C@@H](NC(=O)[C@@H](N)Cc1ccc(O)cc1)C(C)C)[C@@H](C)CC)C(=O)O [YVLWKRKRFIFI]
